Reference: article PMC11595998, “Characterization of a New Hsp110 Inhibitor as a Potential Antifungal” (Journal of Fungi, 2024)
Numbered stars: 1 amine (or outer) side, 2 acyl side, 3 side chain; on linkers, the order of the positions; unused ones are H or OH. Bridge positions count the residues as written; N and C are the ends. Square brackets hold non-standard residues; d marks the D form. Peptide text beside a SMILES is read from it. * marks the point of attachment. pTerphenylCO(4''-OnC5H11) = CCCCCOc1ccc(-c2ccc(-c3ccc(C(=O)*)cc3)cc2)cc1; Orn(4R-OH,5R-OH) = O=C([C@H](C[C@@H](O)[C@@H](O)N[*:3])N[*:1])[*:2]; hTyr(3S-OH,4S-OH) = N[C@H](C(=O)O)[C@H](O)[C@@H](O)c1ccc(O)cc1; Pro(3S-OH,4S-Me) = C[C@H]1CN[C@H](C(=O)O)[C@H]1O; Hyp = O=C(O)[C@@H]1C[C@@H](O)CN1

Assays:
[1] = test system: C. albicans strain SC5314; assay: Checkerboard synergy test (FICI) of 2H with common antifungals; format: cell-based, Candida albicans; settings: combination with 2H; SC5314, YNB medium, 37 °C, 24 h; synergy FICI ≤ 0.5, additive or indifferent > 0.5 and < 2, antagonistic > 2
Description: The assay was carried out as published previously. SC5314, the most widely-used wild-type C. albicans strain, was obtained from Dr. Ronda Rolfes (Georgetown University). An aliquot of SC5314 was thawed and grown overnight in Sabouraud medium at 30 °C. After harvesting by centrifugation at 1200× g for 5 min, the cells were washed twice using PBS. Afterward, the inoculum was prepared in the YNB medium, a yeast synthetic medium, with an OD600 of 0.0005 (corresponding to 5 × 10^3–1 × 10^4 colony forming units (CFU)). Five common antifungals (Amphotericin B, Anidulafungin, Flucytosine, Clotrimazole, and Itraconazole) were prepared in either DMSO or ddH2O according to the manufacturer’s instructions. The antifungal drugs were serially diluted in DMSO or ddH2O and added to wells containing 100 µL inoculum in sterile 96-well culture plates. In addition, serial dilutions of 2H were added in combination with the above antifungals. Wells without any compounds were used as growth controls. Incubation at 37 °C followed, and optical density measurements at 600 nm were taken after 24 h with wells containing only medium as blanks. The fractional inhibitory concentration index (FICI) was calculated to test the synergistic effect between each of these common antifungals with 2H according to the published protocols.
A checkerboard (or chequerboard) assay was carried out to assess the fractional inhibitory concentration index (FICI). The widely-used wild-type C. albicans strain SC5314 was used. […] More antifungals may need to be examined to find potential synergistic effects with 2H.
Figure 1 Synergy testing between 2H and several common antifungal drugs (A–E); Checkerboard analysis of antifungal activity for combination of 2H and several common antifungals. The heat-map plots of relative growth (calculated by setting the growth without compounds as 100%) were presented: (A) Amphotericin B; (B) Anidulafungin; (C) Flucytosine; (D) Clotrimazole; (E) Itraconazole. Color scale for relative growth is provided on the right. (F) The Fractional Inhibitory Concentration Index (FICI) for the combination of 2H and several common antifungals. The FICI is interpreted as follows: a synergistic effect when FICI ≤ 0.5; an additive or indifferent effect when FICI > 0.5 and <2; an antagonistic effect when FICI > 2. TEXT PRINTED IN THE PICTURE: (F) Amphotericin B: FICI: 1.077±0.060 | (F) Anidulafungin: FICI: 1.108±0.084 | (F) Clotrimazole: FICI: 0.741±0.092 | (F) Flucytosine: FICI: 1.261±0.075 | (F) Itraconazole: FICI: 0.862±0.013

[2] = test system: C. neoformans Type Strain H99; assay: Antifungal susceptibility (growth) test, MIC90; format: cell-based, Cryptococcus neoformans; settings: H99, YNB medium, 37 °C, 48 h
Description: (§1) We followed the Clinical and Laboratory Standards Institute for yeasts (CLSI M27 [80]) and our previously published protocol for the determination of MIC and MFC [33]. The C. neoformans Type Strain H99 was obtained from the laboratory of Dr. Joseph Heitman (Duke University). After growing in Sabouraud medium, this strain was resuspended in 35% glycerol, aliquoted, flash-frozen in liquid nitrogen, and stored in a −80 °C freezer.
(§2) For each experiment, a 100 µL frozen aliquot of H99 was thawed and diluted into 5 mL Sabouraud medium. After being grown at 30 °C overnight, the culture was pelleted and washed twice using PBS at room temperature. The inoculum was prepared using the YNB medium, a yeast synthetic medium, with 5 × 10^3–1 × 10^4 colony forming units (CFU) (corresponding to an OD600 of 0.0005). Sterile 96-well culture plates were used for growth tests. After aliquoting 100 µL of the inoculum into each well, serial dilutions of 2H or fluconazole were added to the wells and mixed well by pipetting up and down. After shaking at 37 °C for 48 h, growth was measured by absorbance at 600 nm using a spectrophotometric plate reader. Wells with only medium were used as blanks and wells with only inoculum were used as growth controls. […]
(§3) Figure 3 2H inhibits the growth of Cryptococcus neoformans and is fungicidal. […] (B) The MIC90 and MFC of 2H were determined on C. neoformans strain H99. […]

[3] = test system: C. albicans strain SC5314; set-up: method as in PMID 37173314; settings: combination with 2H; previous test; cited from earlier work
[4] = test system: C. neoformans Type Strain H99; assay: Viability test, minimum fungicidal concentration (MFC); format: cell-based, Cryptococcus neoformans
Description: as §1, §2, §3

Row | SMILES | Fractional Inhibitory Concentration Index (FICI) [1] | also measured
1 | Clc1ccccc1C(c1ccccc1)(c1ccccc1)n1ccnc1 [Clotrimazole] | 0.741±0.092 | 
2 | Nc1[nH]c(=O)ncc1F [Flucytosine] | 1.261±0.075 | 
3 | OC(Cn1cncn1)(Cn1cncn1)c1ccc(F)cc1F [Fluconazole] |  | MIC90 (minimum inhibitory concentration for 90% inhibition) [2]: 16 µM; Synergistic effect between 2H and fluconazole [3]: no apparent synergistic effect; Fungicidal or fungistatic [4]: fungistatic
4 | CCCCCOc1ccc(-c2ccc(-c3ccc(C(=O)N[C@H]4C[C@@H](O)[C@@H](O)NC(=O)[C@@H]5[C@@H](O)[C@@H](C)CN5C(=O)[C@H]([C@@H](C)O)NC(=O)[C@H]([C@H](O)[C@@H](O)c5ccc(O)cc5)NC(=O)[C@@H]5C[C@@H](O)CN5C(=O)[C@H]([C@@H](C)O)NC4=O)cc3)cc2)cc1 [Anidulafungin] ({pTerphenylCO(4''-OnC5H11)}-[Orn(4R-OH,5R-OH)]T[Hyp][hTyr(3S-OH,4S-OH)]T[Pro(3S-OH,4S-Me)]; lactam 1-C) | 1.108±0.084 | 
5 | C[C@@H]1[C@H](O)[C@@H](C)/C=C/C=C/C=C/C=C/C=C/C=C/C=C/[C@H](O[C@@H]2O[C@H](C)[C@@H](O)[C@H](N)[C@@H]2O)C[C@@H]2O[C@](O)(C[C@@H](O)C[C@@H](O)[C@H](O)CC[C@@H](O)C[C@@H](O)CC(=O)O[C@H]1C)C[C@H](O)[C@H]2C(=O)O [Amphotericin B] | 1.077±0.060 | 
6 | CCC(C)n1ncn(-c2ccc(N3CCN(c4ccc(OCC5COC(Cn6cncn6)(c6ccc(Cl)cc6Cl)O5)cc4)CC3)cc2)c1=O (centres unmarked) [Itraconazole] | 0.862±0.013 | 
